Laboratory results from ChEMBL document CHEMBL1201862, “PubChem BioAssay data set” (2004).
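Five concentrations, 48 hours, 96-well plates. GI50: concentration for 50% inhibition of growth.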 The source made the active and inactive calls. Cut-off read from the data, not from the text of the source: active = GI50 up to about 1.1 µM and inactive = higher.

Legend:
Experiment in all cases: DTP human tumour cell line panel, 48 h
[1] = system: 786-0
[2] = system: A498
[3] = system: A549
[4] = system: ACHN
[5] = system: CAKI-1
[6] = system: CCRF-CEM
[7] = system: DLD-1
[8] = system: DMS-114
[9] = system: DMS-273
[10] = system: EKVX
[11] = system: HL-60
[12] = system: HOP-62
[13] = system: HOP-92
[14] = system: HT-29
[15] = system: K562
[16] = system: KM-20L2
[17] = system: KM12
[18] = system: LOX IMVI
[19] = system: LXFL 529
[20] = system: M19-MEL
[21] = system: MOLT-4
[22] = system: Malme-3M
[23] = system: NCI-H226
[24] = system: NCI-H23
[25] = system: NCI-H460
[26] = system: OVCAR-4
[27] = system: OVCAR-5
[28] = system: OVCAR-8
[29] = system: RXF 393
[30] = system: SF-268
[31] = system: SF-295
[32] = system: SF-539
[33] = system: SK-MEL-28
[34] = system: SK-MEL-2
[35] = system: SK-MEL-5
[36] = system: SK-OV-3
[37] = system: SN12C
[38] = system: SNB-19
[39] = system: SNB-78
[40] = system: SR
[41] = system: SW-620
[42] = system: TK-10
[43] = system: U-251
[44] = system: UACC-257
[45] = system: UACC-62
[46] = system: UO-31
[47] = system: XF498

Measured: GI50

COc1cc(OC)c(C#N)c(OC)c1C
inactive: [1] > 100 µM | [2] > 100 µM | [3] > 100 µM | [4] > 100 µM | [5] > 100 µM | [6] > 100 µM | [7] > 100 µM | [8] > 100 µM | [9] > 100 µM | [10] > 100 µM | [11] > 100 µM | [12] > 100 µM | [13] > 100 µM | [14] > 100 µM | [15] > 100 µM | [16] > 100 µM | [17] > 100 µM | [18] > 100 µM | [19] > 100 µM | [20] > 100 µM | [21] > 100 µM | [22] > 100 µM | [23] > 100 µM | [24] > 100 µM | [25] > 100 µM | [26] > 100 µM | [27] 98.4 µM | [28] > 100 µM | [29] > 100 µM | [30] > 100 µM | [31] > 100 µM | [32] > 100 µM | [33] > 100 µM | [34] > 100 µM | [35] > 100 µM | [36] > 100 µM | [37] > 100 µM | [38] > 100 µM | [39] > 100 µM | [40] > 100 µM | [41] > 100 µM | [42] > 100 µM | [43] > 100 µM | [44] > 100 µM | [45] > 100 µM | [46] > 100 µM | [47] 5.62 µM
